In ChEMBL document CHEMBL5360672, “Identification of Novel Dual-Target Estrogen Receptor α Degraders with Tubulin Inhibitory Activity for the Treatment of Endocrine-Resistant Breast Cancer” (J Med Chem, 2023):
Calls of active or inactive are those of the source. The calls are words filed in the database; no cut-off is given here.

Columns and labels:
[1] = molecular target: T1, Estrogen receptor (Homo sapiens) (UniProt P03372); test: Binding affinity to human ERalpha assessed as relative binding affinity incubated under vibration for 1 min followed by 2 hrs incubation under dark condition by fluorescence polarization assay relative to estradiol; details: time 121.0 min
T1 sequence (whole entry): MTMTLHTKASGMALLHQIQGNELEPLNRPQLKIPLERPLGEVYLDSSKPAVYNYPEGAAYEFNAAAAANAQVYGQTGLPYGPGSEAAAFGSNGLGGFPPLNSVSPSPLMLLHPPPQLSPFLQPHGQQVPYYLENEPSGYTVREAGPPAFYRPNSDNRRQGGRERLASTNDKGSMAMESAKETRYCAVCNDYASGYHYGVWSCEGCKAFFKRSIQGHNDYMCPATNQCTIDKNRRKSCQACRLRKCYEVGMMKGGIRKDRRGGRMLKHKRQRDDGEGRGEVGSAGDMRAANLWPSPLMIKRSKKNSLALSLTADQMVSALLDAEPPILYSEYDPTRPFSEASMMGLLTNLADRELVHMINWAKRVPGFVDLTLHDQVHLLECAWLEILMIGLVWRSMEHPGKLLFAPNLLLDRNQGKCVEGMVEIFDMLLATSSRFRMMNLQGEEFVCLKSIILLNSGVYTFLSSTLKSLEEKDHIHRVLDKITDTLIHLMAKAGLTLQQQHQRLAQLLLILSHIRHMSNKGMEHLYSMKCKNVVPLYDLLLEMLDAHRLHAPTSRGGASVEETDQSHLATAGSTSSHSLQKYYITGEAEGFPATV

[2] = molecular target: Estrogen receptor beta (Homo sapiens) (UniProt Q92731); test: Binding affinity to human ERbeta assessed as relative binding affinity incubated under vibration for 1 min followed by 2 hrs incubation under dark condition by fluorescence polarization assay relative to estradiol; details: time 121.0 min
Estrogen receptor beta (Homo sapiens), sequence (Q92731 whole entry): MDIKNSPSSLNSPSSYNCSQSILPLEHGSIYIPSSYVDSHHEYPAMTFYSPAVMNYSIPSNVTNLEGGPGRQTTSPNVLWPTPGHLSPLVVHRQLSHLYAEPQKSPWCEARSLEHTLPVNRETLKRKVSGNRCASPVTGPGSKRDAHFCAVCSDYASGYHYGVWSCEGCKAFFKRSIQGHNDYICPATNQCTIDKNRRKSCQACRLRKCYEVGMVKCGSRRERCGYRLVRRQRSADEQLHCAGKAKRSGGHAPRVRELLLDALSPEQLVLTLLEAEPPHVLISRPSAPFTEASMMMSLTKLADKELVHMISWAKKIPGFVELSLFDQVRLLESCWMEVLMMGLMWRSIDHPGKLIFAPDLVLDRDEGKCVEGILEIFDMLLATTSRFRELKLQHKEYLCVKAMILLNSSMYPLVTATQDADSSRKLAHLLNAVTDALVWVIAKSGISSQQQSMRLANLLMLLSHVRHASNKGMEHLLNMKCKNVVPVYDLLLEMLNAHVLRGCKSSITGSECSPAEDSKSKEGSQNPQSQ

[3] = species: Homo sapiens; test: Selectivity ratio of relative binding affinity for human ERalpha to relative binding affinity to human ERbeta
[4] = test system: MCF7; test: Antiproliferative activity against ERalpha positive human MCF7 cells assessed as inhibition of cell proliferation incubated for 72 hrs by CCK8 assay; assay type: functional, cell-based; details: MCF7, 72 h
[5] = test system: T47D; test: Antiproliferative activity against ERalpha positive human T47D cells assessed as inhibition of cell proliferation incubated for 72 hrs by CCK8 assay; assay type: functional, cell-based
[6] = Cytotoxicity against human MCF-10A cells assessed as inhibition of cell proliferation incubated for 72 hrs by CCK8 assay; assay type: toxicity, cell-based
[7] = Selectivity index, ratio of IC50 for cytotoxicity against human MCF-10A cells to IC50 for antiproliferative activity against human MCF7 cells; assay type: toxicity, cell-based; details: MCF-10A cells and MCF7 cells, read-out: Ratio IC50
[8] = Antiproliferative activity against human Tamoxifen-resistant LCC2 cells assessed as inhibition of cell proliferation incubated for 72 hrs by CCK8 assay; assay type: functional, cell-based
[9] = test system: T47D; test: Antiproliferative activity against human T47D cells harboring ERalpha D538G mutant assessed as inhibition of cell proliferation incubated for 72 hrs by CCK8 assay; assay type: functional, cell-based
[10] = test system: T47D; test: Antiproliferative activity against human T47D cells harboring ERalpha Y537S mutant assessed as inhibition of cell proliferation incubated for 72 hrs by CCK8 assay; assay type: functional, cell-based
[11] = molecular target: T1, Estrogen receptor (Homo sapiens); test: Induction of ERalpha degradation in human MCF7 cells at 5 uM incubated for 24 hrs by Western blot analysis relative to SeCN-OBHSA derivatives; assay type: cell-based

Row | SMILES | RBA [1] [%] | RBA [2] [%] | Selectivity ratio [3] | IC50 [4] [µM] | IC50 [5] [µM] | IC50 at 72 h [6] [µM] | selectivity ratio [7] | IC50 [8] [µM] | IC50 [9] [µM] | IC50 [10] [µM] | Activity [11]
1 | CCN(c1ccc(F)cc1)S(=O)(=O)C1CC2OC1C(c1ccc(NC(=O)CCCCC[Se]C#N)cc1)=C2c1ccc(O)cc1 (centres undefined) | 11.2 | 0.07 | 159 | 0.25 | 3.84 | 18.1 | 72.2 | 2.64 | 2.43 | 2.74 | Active
2 | CCN(c1ccc(Cl)cc1)S(=O)(=O)C1CC2OC1C(c1ccc(NC(=O)CCCCC[Se]C#N)cc1)=C2c1ccc(O)cc1 (centres undefined) | 2.31 | 0.06 | 38.5 | 0.44 | 5.66 | 29.2 | 66.3 | 4 | 6.76 | 4.51 | Active
3 | COc1cccc(N(CC(F)(F)F)S(=O)(=O)C2CC3OC2C(c2ccc(NC(=O)CCCCC[Se]C#N)cc2)=C3c2ccc(O)cc2)c1 (centres undefined) | 1.44 | 0.13 | 11.1 | 0.47 | 9.62 | 26.9 | 57.1 | 6.73 | 5.16 | 4.58 | Active
4 | N#C[Se]CCCCCC(=O)Nc1ccc(C2=C(c3ccc(O)cc3)C3CC(S(=O)(=O)N(CC(F)(F)F)c4ccc(F)cc4)C2O3)cc1 (centres undefined) | 7.18 | 0.38 | 18.9 | 0.17 | 5.82 | 12.2 | 71.9 | 4.48 | 2.71 | 2.7 | Active
5 | COc1ccc(N(CC(F)(F)F)S(=O)(=O)C2CC3OC2C(c2ccc(NC(=O)CCCCC[Se]C#N)cc2)=C3c2ccc(O)cc2)cc1 (centres undefined) | 2.31 | 0.05 | 46.2 | 0.25 | 5.3 | 36.7 | 147 | 3.73 | 3.96 | 3.06 | Active
6 | COc1ccc(N(CC(F)(F)F)S(=O)(=O)C2CC3OC2C(c2ccc(NC(=O)CCC[Se]C#N)cc2)=C3c2ccc(O)cc2)cc1 (centres undefined) | 0.46 | 0.38 | 1.21 | 2.95 | 19.9 | > 100 | > 33.9 | 10.1 | 17.2 | 11.7 | Active
7 | N#C[Se]CCCCCC(=O)Nc1ccc(C2=C(c3ccc(O)cc3)C3CC(S(=O)(=O)N(CC(F)(F)F)c4ccc(Cl)cc4)C2O3)cc1 (centres undefined) | 7.52 | 0.01 | 752 | 0.25 | 13.6 | 32.4 | 130 | 6.69 | 5.11 | 4.4 | Active
8 | CCN(c1ccccc1Cl)S(=O)(=O)C1CC2OC1C(c1ccc(NC(=O)CCCCC[Se]C#N)cc1)=C2c1ccc(O)cc1 (centres undefined) | 2.69 | 0.09 | 29.9 | 0.16 | 3.11 | 17.3 | 108 | 2.17 | 2.37 | 2.18 | Active
9 | CCN(c1cccc(F)c1)S(=O)(=O)C1CC2OC1C(c1ccc(NC(=O)CCCCC[Se]C#N)cc1)=C2c1ccc(O)cc1 (centres undefined) | 0.79 | 0.03 | 26.3 | 0.36 | 3.39 | 11 | 30.6 | 2.51 | 2.37 | 2.39 | Active
